# Where “and” joins values, the source holds several entries; their conditions need not be identical. Equal entries are not always repeated.
# Tests used:
# [1] = system: carrageenan-induced acute paw inflammation; assay: Paw swelling test induced by carrageenan in rats; assay type: in vivo, Sprague-Dawley rats; design: paw volume: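 right hind paw volume measured with a plethysmometer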; conditions: listed as From III; for paw volume / paw edema: mean±SD of 6 rats; for edema inhibition: versus model group
# Method: Rats were divided into 11 groups of six animals each (sex in half): the normal group, the model group, indomethacin group (1 mg/kg), and form I, II, III, IV groups (each form set 10 mg/kg and 20 mg/kg groups, respectively). Indomethacin and CK were ground and suspended in 0.5% CMC-Na solution. […] The same volume of saline was injected into the normal group. […] Paw edema and inhibitory rate were calculated as the following formula, and the differences among groups were compared with the t-test. Paw edema (%) = (Vn − V0)/V0 × 100%. Vn: paw volume at different time intervals after carrageenan injection. V0: paw volume before carrageenan injection. Inhibitory rate (%) = (Em − Ee)/Em × 100%. Em: paw edema of the model group. Ee: paw edema of the experimental group.
# [2] = DSC thermal analysis of CK polymorphs; assay type: physicochemical; conditions: 20 K/min from 20 to 400 °C, dry nitrogen flow
# Method: DSC measurements were performed on a DSC204 Phoenix calorimeter (NETZSCH, Selb, Germany) with a heating rate of 20 K/min from 20 to 400 °C. The dry nitrogen flow was about 50 mL/min. Data were analyzed using NETZSCH analysis software.
# [3] = Pharmacokinetics after oral administration of CK polymorphs in rats (20 mg/kg); assay type: in vivo, Sprague-Dawley rats; conditions: p.o. 20 mg/kg, individual rats 1-3
# Method: All samples were analyzed with a triple quadrupole LC-MS/MS (API 4000 LC-MS/MS, AB Sciex, Framingham, MA, USA) coupled with an Agilent 1200 HPLC system (Agilent Technologies, Palo Alto, CA, USA). The MS was equipped with an electrospray system (ESI). The N2 gas temperature and ion-spray voltage were set to 550 °C and 4.5 kV, respectively. CK was measured in multiple reaction monitoring (MRM) mode using a negative electrospray ionization source at m/z 667.4 → 621.2 for CK (CID 25.6 v) and m/z 271.2 → 228.8 for internal standard (IS, (E)-5-(4-fluorostyryl)-2-isopropylbenzene-1,3-diol, Welichem Biotech Inc., Wayburne Drive Burnaby, BC, Canada) (CID 28.3 v) with a dwell time of 0.1 s.
# Rats were divided randomly into 5 groups of six animals each (sex in half) and given 7 days to acclimatize to the facility before the experiments began. The four forms of CK were suspended in 0.5% sodium carboxymethyl cellulose (CMC-Na) solution and orally administered to rats at a dose of 20 mg/kg. A CK solution in a mixed solvent of dimethyl sulfoxide (DMSO)/castor oil/physiologic saline (3:5:92, v/v) was intravenously administered to the remaining group via the tail vein at a dose of 10 mg/kg. Blood samples were collected by retro-orbital puncture at the following times: 0.167, 0.333, 0.667, 1, 2, 3, 4, 6, 9, 12, and 24 h for the oral administration, and at 0.0083, 0.05, 0.133, 0.25, 0.5, 1, 2, 4, 6, and 9 h for the intravenous administration. Plasma samples were obtained by centrifuging a heparinized blood tube at 4000 rpm for 5 min and then stored at −70 °C until analysis.
# The procedure for drug extraction from plasma samples was as follows: 0.2 mL acetonitrile, 0.2 mL plasma sample, and 10 μL IS (1 µg/mL) were added into a 1.5 mL Eppendorf-type tube. This mixture was vortexed for 1 min and then treated with 0.8 mL of methyl tert-butyl ether (MTBE) to precipitate the plasma proteins. After a mechanical vortex for 1 min and subsequent centrifugation (4000 rpm, 5 min), 0.8 mL of the supernatant was transferred and blow-dried with N2 at 40 °C in a water bath. Finally, the residue was dissolved in 120 μL of mobile phase, and then 10 μL was subjected to HPLC for analysis. […] Intra- and inter-day precision and accuracy never exceeded 15% by analyzing six replicate samples.
# The CK pharmacokinetic parameters in rats, including the area under the curve (AUC(0–t) and AUC(0–∞)), mean residence time (MRT(0–t) and MRT(0–∞)), maximum concentration (Cmax), time to maximum concentration (Tmax), half-life (t1/2), apparent distribution volume (V), and total plasma clearance (CL), were derived from plasma concentration-time curves by using non-compartmental analysis (NCA) with DAS 2.0 software (Drug And Statistics, Mathematical Pharmacology Professional Committee of China, Shanghai, China). The absolute bioavailability (Fabs) was calculated from the dose-adjusted ratio of AUCp.o. to AUCi.v.. One-way analysis of variance (ANOVA) by SPSS 11.5 (SPSS Inc., Chicago, IL, USA) was conducted to compare the primary PK parameters.
# [4] = as above; assay type: in vivo, Sprague-Dawley rats; conditions: for Fabs (absolute bioavailability): p.o. 20 mg/kg vs i.v. 10 mg/kg, dose-adjusted AUC ratio; for t1/2z / AUC(0–t) / AUC(0–∞) / CLz/F / Cmax / Vz/F: p.o. 20 mg/kg, 20 mg/kg
# [5] = 10 mg/kg p.o. qd 3 days, 3h after carrageenan
# [6] = 10 mg/kg p.o. qd 3 days, 4h after carrageenan
# [7] = 10 mg/kg p.o. qd 3 days, 5h after carrageenan
# [8] = 10 mg/kg p.o. qd 3 days, 6h after carrageenan
# [9] = 20 mg/kg p.o. qd 3 days, 3h after carrageenan
# [10] = 20 mg/kg p.o. qd 3 days, 4h after carrageenan
# [11] = 20 mg/kg p.o. qd 3 days, 5h after carrageenan
# [12] = 20 mg/kg p.o. qd 3 days, 6h after carrageenan
structure (smiles),measurement,setting,value
"CC(C)=CCCC(C)(OC1OC(CO)C(O)C(O)C1O)C1CCC2(C)C1C(O)CC1C3(C)CCC(O)C(C)(C)C3CCC12C [Form III, 20-O-β-D-glucopyranosyl-20(S)-protopanaxadiol]",paw volume,"[1]; 10 mg/kg p.o. qd 3 days, 0h (before carrageenan)",1.60±0.11
same,paw edema,[1]; [5],56.76±9.61%
same,paw volume,[1]; [5],2.50±0.06
same,edema inhibition,[1]; [5],11.69%
same,paw edema,[1]; [6],58.19±18.49%
same,paw volume,[1]; [6],2.52±0.17
same,edema inhibition,[1]; [6],6.69%
same,paw edema,[1]; [7],42.15±12.34%
same,paw volume,[1]; [7],2.27±0.14
same,edema inhibition,[1]; [7],18.56%
same,paw edema,[1]; [8],30.81±14.08%
same,paw volume,[1]; [8],2.08±0.15
same,edema inhibition,[1]; [8],21.63%
same,paw volume,"[1]; 20 mg/kg p.o. qd 3 days, 0h (before carrageenan)",1.63±0.12
same,paw edema,[1]; [9],55.29±13.62%
same,paw volume,[1]; [9],2.53±0.25
same,edema inhibition,[1]; [9],13.98%
same,paw edema,[1]; [10],48.28±7.79%
same,paw volume,[1]; [10],2.42±0.13
same,edema inhibition,[1]; [10],22.59%
same,paw edema,[1]; [11],34.20±12.28%
same,paw volume,[1]; [11],2.18±0.15
same,edema inhibition,[1]; [11],33.94%
same,paw edema,[1]; [12],27.94±7.14%
same,paw volume,[1]; [12],2.08±0.08
same,edema inhibition,[1]; [12],28.94%
same,DSC onset of the decomposition endotherm (thermodynamical stability),[2],255.9 °C
same,AUC(0-t),[3]; female rats,1577.20 ng·h/mL and 2580.19 ng·h/mL and 1451.26 ng·h/mL
same,AUC(0-∞),[3]; female rats,1582.68 ng·h/mL and 2592.62 ng·h/mL and 1513.29 ng·h/mL
same,CLz/F,[3]; female rats,210.7 mL/min/kg and 128 mL/min/kg and 220.3 mL/min/kg
same,Cmax,[3]; female rats,263.79 ng/mL and 412.66 ng/mL and 388.92 ng/mL
same,Vz/F,[3]; female rats,51.35 L/kg and 34.03 L/kg and 48.90 L/kg
same,AUC(0-t),[3]; male rats,656.21 ng·h/mL and 1550.66 ng·h/mL and 1308.63 ng·h/mL
same,AUC(0-∞),[3]; male rats,662.23 ng·h/mL and 1560.11 ng·h/mL and 1328.10 ng·h/mL
same,CLz/F,[3]; male rats,503.3 mL/min/kg and 213.7 mL/min/kg and 251 mL/min/kg
same,Cmax,[3]; male rats,90.26 ng/mL and 144.54 ng/mL and 218.65 ng/mL
same,t1/2z,[3]; male rats,2.68 h and 3.83 h and 3.40 h
same,Fabs (absolute bioavailability),[4]; female rats,5.85%
same,t1/2z,"[4]; female rats, individual rats 1-3",2.82 h and 3.06 h and 2.56 h
same,AUC(0–t),"[4]; female rats, mean ± SD (n = 3)",1869.55 ± 618.65 ng·h/mL and 1869.6 ± 618.65 ng·h/mL
same,AUC(0–∞),"[4]; female rats, mean ± SD (n = 3)",1896.19 ± 604.12 ng·h/mL and 1896.2 ± 604.12 ng·h/mL
same,CLz/F,"[4]; female rats, mean ± SD (n = 3)",186.5 ± 50.3 mL/min/kg and 187 ± 50.3 mL/min/kg
same,Cmax,"[4]; female rats, mean ± SD (n = 3)",355.12 ± 79.98 ng/mL and 355.1 ± 79.98 ng/mL
same,Vz/F,"[4]; female rats, mean ± SD (n = 3)",44.76 ± 9.37 L/kg and 44.8 ± 9.37 L/kg
same,t1/2z,"[4]; female rats, mean ± SD (n = 3)",2.81 ± 0.25 h and 2.8 ± 0.25 h
same,Fabs (absolute bioavailability),[4]; male rats,3.90%
same,Vz/F,"[4]; male rats, individual rats 1-3",148.10 L/kg and 49.55 L/kg and 83.24 L/kg
same,AUC(0–t),"[4]; male rats, mean ± SD (n = 3)",1171.83 ± 462.65 ng·h/mL and 1171.8 ± 462.65 ng·h/mL
same,AUC(0–∞),"[4]; male rats, mean ± SD (n = 3)",1183.48 ± 466.08 ng·h/mL and 1183.5 ± 466.08 ng·h/mL
same,CLz/F,"[4]; male rats, mean ± SD (n = 3)",322.7 ± 158 mL/min/kg and 323 ± 158 mL/min/kg
same,Cmax,"[4]; male rats, mean ± SD (n = 3)",151.15 ± 64.45 ng/mL and 151.2 ± 64.45 ng/mL
same,Vz/F,"[4]; male rats, mean ± SD (n = 3)",93.63 ± 50.09 L/kg and 93.6 ± 50.1 L/kg
same,t1/2z,"[4]; male rats, mean ± SD (n = 3)",3.3 ± 0.58 h
